Assay [1] relates to endothelial nitric oxide synthase (eNOS). Put plainly: eNOS expression in high glucose-treated hRMECs (Western blot). It is filed as cell-based, human. The note with it: 100 μM apoEdp, 30 minute treatment. The source says: Cell Culture. Primary cultures of human retina microvascular endothelial cells (hRMECs) were purchased from the Applied Cell Biology Research Institute and grown on attachment factor-coated plates in cell systems complete (CSC) medium (Cell Systems, Kirkland, Wash.) supplemented with 20% fetal bovine serum, culture boost (animal derived growth factors) and bac-off (antibiotics). The primary hRMECs were used in their passages 4 to 6. The 18-a.a. apoE mimetic peptide apoEdp (SEQ ID NO:3, Ac-LRKLRKRLLLRKLRKRLL-amide), derived from the human apolipoprotein E receptor-binding region (see SED ID NO:1) between residues 141 and 149, was synthesized (Genemed, Arlington, Tex.) with a purity of greater than 95%. The apoEdp peptide was dissolved in phosphate-buffered saline (“PBS”) at a concentration appropriate for further experimental use. […]
Western Blotting. […] The total protein concentration was determined using a BCA protein assay kit (Pierce, Rockford, Ill.). […] To ensure the equal loading of protein in each lane, each membrane was stripped and re-probed with an antibody against β-actin, and the chemiluminescence was detected as described previously. After scanning the blots with a flatbed scanner, band intensities were analyzed using ImageJ (NIH) and the relative intensity values were normalized to control values. […]

The test system of assay [2] is heparanase. Put plainly: Streptozotocin-induced diabetic mice, heparanase expression. It is filed as in vivo, mouse. The note with it: either 14-day eye drop application or systemic i/p injection. Here is the method: Streptozotocin (STZ) induced diabetes. Twelve week old C57Bl/6 mice were used for this study. Mice were induced to have diabetes by intraperitoneal injection of 170 μg/g of streptozotocin (Sigma Aldrich, St. Louis, Mo.). Controls were injected with a vehicle (0.01M sodium citrate buffer). On the third day after STZ treatment, mice tail veins were bled to test the hyperglycemic status using blood sugar detection kit (Lifescan; Johnson & Johnson, Milpitas, Calif.). Mice with blood sugar levels of >300 mg/dL on the third day after STZ treatment were considered diabetic. Eye drop treatment containing 1% apoEdp or vehicle PBS was continued 4 times a day for 14 consecutive days. Intra-peritoneal (i/p) injection containing 40 mg/kg of apoEdp or vehicle control PBS was administered once daily for 14 consecutive days. On the 15th day post-treatment, mice were euthanized, their eyes enucleated, and the retinas dissected out to use for mRNA or Western blot analysis.
Increased vascular permeability in diabetic retinopathy (DR) is reported to result in a concomitant increase of VEGF. The VEGF pathway is known to play a role in breakdown of the BRB through a mechanism involving the down regulation of tight junction proteins in the retinal microvasculature (20).

Residues, ends and D or L forms follow the SMILES beside them.

As for `CC(=O)N[C@@H](CC(C)C)C(=O)N[C@@H](CCCNC(=N)N)C(=O)N[C@@H](CCCCN)C(=O)N[C@@H](CC(C)C)C(=O)N[C@@H](CCCNC(=N)N)C(=O)N[C@@H](CCCCN)C(=O)N[C@@H](CCCNC(=N)N)C(=O)N[C@@H](CC(C)C)C(=O)N[C@@H](CC(C)C)C(=O)N[C@@H](CC(C)C)C(=O)N[C@@H](CCCNC(=N)N)C(=O)N[C@@H](CCCCN)C(=O)N[C@@H](CC(C)C)C(=O)N[C@@H](CCCNC(=N)N)C(=O)N[C@@H](CCCCN)C(=O)N[C@@H](CCCNC(=N)N)C(=O)N[C@@H](CC(C)C)C(=O)N[C@@H](CC(C)C)C(N)=O` [apoEdp, Ac-LRKLRKRLLLRKLRKRLL-amide] (Ac-LRKLRKRLLLRKLRKRLL-NH2), the “Elevated expression of eNOS induced by 30 mM D-glucose” value in assay [1] was “prevented”. In assay [2], the “Increased expression of heparanase” value was “reversed increased expression of heparanase”.

(Values after patent US9636299B2, “Method for treating diabetic retinopathy” (XAVIER UNIVERSITY OF LOUISIANA, priority 2012, dated 2017).)
